Results on eleven compounds are retold here after patent US5326882A, “Chemiluminescent 3-(substituted Adamant-2'-Ylidene) 1,2-dioxetanes” (Tropix, Inc., priority 1992, dated 1994).

Test [1] has as its target T1, alkaline phosphatase (Bos taurus, UniProt P19111). Nature of the test: Half-time to plateau at low alkaline phosphatase concentration (Example XLI). Type of test: biochemical. Particulars: 0.4 mM dioxetane at pH 10.0; 31.5° C.; 2.53 × 10^-13 M alkaline phosphatase.
The target in test [2] is T1, alkaline phosphatase. The test can be described thus: Detection limits for alkaline phosphatase, Berthold LB952T (Example XXII). Type of test: biochemical. Conditions: twice background. Here is the method:
(§1) The detection means for alkaline phosphatase with different chemiluminescent 1,2-dioxetane substrates were determined as follows: Duplicates of serial dilutions (1 to 3) of alkaline phosphates were incubated at room temperature with 0.4 mM dioxetane in 0.1 M diethanolamine, 1 mM MgCl2, pH 10.0, containing 1 mg/ml of either of the polymeric enhancers Enhancer 1 or Enhancer 2, in […].
(§2) Following either a 5 or a 20 minute incubation with a substrate, the chemiluminescence intensity was measured as a 5 second integrated Relative Light Units (RLU) and plotted as in FIG. 10. […] The alkaline phosphatase concentrations at twice background were used as the detection limits in Table 5.

For test [3], the target named is T1, alkaline phosphatase. The test can be described thus: Chemiluminescent signal-to-noise levels with enhancers (Example XXIV). Type of test: biochemical. On the procedure: The chemiluminescent signal to noise levels were obtained with 2.83×10^-13 M alkaline phosphatase and various R-substituted adamantyl 1,2-dioxetane phosphates in the presence of several enhancers. All measurements were performed in a Berthold LB952T luminometer at room temperature. First, the background chemiluminescence levels (signal in the absence of the enzyme) of each sample (in triplicate) were measured. Each sample consisted of 0.2 μmoles of dioxetane in 0.45 ml of 0.1 M diethanolamine, 1 mM MgCl2, pH 10.0, without or with 1 mg/ml of the indicated enhancer. Tubes were inserted into the luminometer and the luminescence intensity was measured. Next, the tubes were removed from the luminometer and alkaline phosphatase (50 μl containing 1.415×10^-16 moles) was added to each tube, and the luminescence intensity was measured at 5 and 20 minutes after substrate addition. The final concentration of dioxetane in each tube was 0.4 mM.
All enhancers used at 1 mg/ml in 0.1 M DEA, pH 10. Alkaline phosphatase concentration=2.83×10^-13 M. Measurements performed in a Berthold LB952T Luminometer.

Test [4] has as its target T1, alkaline phosphatase. The test can be described thus: Alkaline phosphatase detection limits, Wilj microtiter plate luminometer (Example XXVI). It counts as biochemical. Particulars: 23 MINUTE INCUBATION
Test [5] addresses T2, alkaline phosphatase (calf intestine; Biozyme) (Bos taurus, UniProt P19111).
T2 construct: purchased Biozyme; host or cells: calf intestine
The test can be described thus: Total dephosphorylation, chemiluminescence decay (Example XIII). It counts as biochemical. Conditions: 30° C., carbonate/bicarbonate buffer. Here is the method: A comparison of the total luminescence emission from AMPPD and from the corresponding 1,2-dioxetanes whose adamant-2'-ylidene groups are monosubstituted with hydroxy (A and B isomers), chloro and bromo groups was made by carrying out total dephosphorylation experiments on each of these compounds.
An aqueous solution of the 1,2-dioxetane (4.0 mm) in 0.05M sodium carbonate/sodium bicarbonate containing 1 mM magnesium chloride was prepared and then equilibrated at 30° C. Ten μl of a 7.64×10M aqueous solution of alkaline phosphatase (calf intestine; Biozyme) was then added, and the chemiluminescence from the resulting solution was recorded using a Turner Model 20E luminometer (Turner Instruments; Sunnyvale, Calif.).
The rates of chemiluminescence decay for each of the five compounds in question, expressed in relative light units (RLU's) per minute, are given in the following table.

In test [6] the target is T3, alkaline phosphatase-labeled DNA probe (Bos taurus, UniProt P19111).
T3 construct: purchased Tropix, Inc
The test can be described thus: Alkaline phosphatase-labeled DNA probe detection in membrane with and without BDMQ blocking step (Example XV). Conditions: for Detection limit (in picograms DNA) 5. min. exp.: five minute exposure 40 minutes after dioxetane addition; for Detection limit (in picograms DNA) 1 min. exp.: one minute exposure 77 minutes after dioxetane addition. On the procedure:
pBr 322 plasmid (4700 bp) was subjected to a nick translation process using a Trans-Light kit (Tropix, Inc., Bedford, Mass.) to generate a mixture of biotinylated single stranded polynucleotides of 200-2000 bps in length.
This mixture was dotted onto a dry BIODYNE A membrane as five parallel columns of dots of the following concentrations:
The membrane was subjected to ultraviolet irradiation (UVP Mineral Light; UVP, San Gabriel, Calif.) for 3 minutes to fix the DNA to the surface of the membrane, then air dried. Next, the membrane was blocked in 0.2% casein/0.1% Tween 20 detergent in PBS for 1 hour, following which 1/5000 diluted avidin-alkaline phosphatase conjugate (Tropix, Inc.) in 0.2% casein in PBS was added. The membrane was then incubated for 30 minutes, washed three times (for 5 minutes each time) in 0.2% casein/0.1% Tween 20 detergent in PBS and washed once for five minutes in aqueous 0.1M diethanolamine containing 1 mm magnesium chloride and 0.02% sodium azide, pH 10.0 (substrate buffer).
Next, the five columns of rows of dots 1-5 were individually cut from the membrane ("strips 1-5"), as were the five columns of rows of dots 6-10 ("strips 6-10"). Strips 1-5 were washed with substrate buffer for 30 minutes. Strips 6-10 were blocked in 0.1% BDMQ in substrate buffer for 30 minutes. Both sets of strips were then incubated for 5 minutes in substrate buffer, then individually incubated for five minutes in aqueous solutions (0.25 mM) of 1,2-dioxetanes as indicated below:
All strips were then placed in camera luminometers and exposed on Polaroid Type 612 instant black and white film.

Test [7] deals with T1, alkaline phosphatase. The test can be described thus: Alkaline phosphatase detection limits, LabSystems Luminoskan (Example XXV). Type of test: biochemical. On the procedure:
as §1, §2
The luminometer used in this example was LabSystems Luminoskan microtiter plate reader.

Where [8] appears, read: enhancer NONE, 5 min, alkaline phosphatase 2.83×10^-13 M.

T3 sequence (P19111 20-506 limits assumed): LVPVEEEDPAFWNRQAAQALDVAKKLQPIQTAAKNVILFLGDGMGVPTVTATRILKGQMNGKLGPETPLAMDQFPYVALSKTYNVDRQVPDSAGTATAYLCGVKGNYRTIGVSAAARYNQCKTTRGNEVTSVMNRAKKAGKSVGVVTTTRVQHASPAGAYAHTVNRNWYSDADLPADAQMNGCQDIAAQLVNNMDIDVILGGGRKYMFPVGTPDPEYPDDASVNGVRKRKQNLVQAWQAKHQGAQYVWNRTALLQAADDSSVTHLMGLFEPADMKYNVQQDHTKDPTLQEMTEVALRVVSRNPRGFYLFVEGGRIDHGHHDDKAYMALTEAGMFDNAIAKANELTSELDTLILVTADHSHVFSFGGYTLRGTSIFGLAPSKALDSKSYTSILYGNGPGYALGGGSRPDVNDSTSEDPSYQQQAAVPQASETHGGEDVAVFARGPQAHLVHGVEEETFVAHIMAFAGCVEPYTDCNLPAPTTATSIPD
T3 sequence (P02701 25-152 partner): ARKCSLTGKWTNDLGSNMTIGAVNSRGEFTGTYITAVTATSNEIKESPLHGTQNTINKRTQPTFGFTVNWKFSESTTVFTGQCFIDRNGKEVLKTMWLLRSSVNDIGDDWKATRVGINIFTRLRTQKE
T2 sequence (P19111 20-506 limits assumed): as the sequence (P19111 20-506 limits assumed) above
T1 sequence (P19111 20-506 limits assumed): as above

Take `COC1(c2cccc(OP(=O)(O)O)c2)OOC12C1CC3CC2CC(Cl)(C3)C1` (centres unmarked) [CSPD]: at alkaline phosphatase [1], the “HALF-TIME TO PLATEAU (min.) AL LOW ALK PHOS CONCENTRATION” value (“HALF-TIME TO PLATEAU” below) amounted to 0.71 min.

As to `COC1(c2cccc(OP(=O)(O)O)c2)OOC12C1CC3CC2CC(OC(C)C)(C3)C1` (single isomer, unassigned) [i-PrO-AMPPD-B], on alkaline phosphatase [1], the “HALF-TIME TO PLATEAU” value is 0.68 min.

Take `COC1(c2cccc(OP(=O)(O)O)c2)OOC12C1CC3CC2CC(I)(C3)C1` (single isomer, unassigned) [ISPD-A]: the “HALF-TIME TO PLATEAU” value on alkaline phosphatase [1] was found to be 0.64 min.

As to `COC1(c2cccc(OP(=O)(O)O)c2)OOC12C1CC3CC2CC(Br)(C3)C1` (centres unmarked) [BrSPD], the “HALF-TIME TO PLATEAU” value on alkaline phosphatase [1] worked out at 0.70 min.

In the case of `COC12CC3CC(C1)C1(OOC1(OC)c1cccc(OP(=O)(O)O)c1)C(C3)C2` (single isomer, unassigned) [CH3 O-AMPPD-A], the “HALF-TIME TO PLATEAU” value on alkaline phosphatase [1] is 0.86 min.

Turning to `COC1(c2cccc(OP(=O)(O)O)c2)OOC12C1CC3CC2CC(O)(C3)C1` (single isomer, unassigned) [HO-AMPPD], the “Detection limit for alkaline phosphatase” value on alkaline phosphatase [2] (ENHANCER 1, 5 MIN) was 3.0 femtomoles/liter; on alkaline phosphatase [2] (ENHANCER 1, 20 MIN), 0.8 femtomoles/liter; on alkaline phosphatase [2] (ENHANCER 2, 5 MIN), 1.0 femtomoles/liter; at alkaline phosphatase [2] (ENHANCER 2, 20 MIN) it was 0.3 femtomoles/liter. Moreover, the chemiluminescent signal-to-noise level at alkaline phosphatase [3] (EMERALD 1 1 mg/ml, 5 min) amounted to 307; at alkaline phosphatase [3] (EMERALD 1 1 mg/ml, 20 min) it was 386; on alkaline phosphatase [3] (EMERALD 2 1 mg/ml, 5 min), 247; on alkaline phosphatase [3] (EMERALD 2 1 mg/ml, 20 min) it was 299; at alkaline phosphatase [3] (SAPPHIRE 1 1 mg/ml, 5 min), 229; at alkaline phosphatase [3] (SAPPHIRE 1 1 mg/ml, 20 min) it was 305. In addition, the chemiluminescent signal-to-noise level is listed as 466 on alkaline phosphatase [3] (SAPPHIRE 2 1 mg/ml, 5 min); 643 at alkaline phosphatase [3] (SAPPHIRE 2 1 mg/ml, 20 min); 55 on alkaline phosphatase [3] (setting [8]); 73 on alkaline phosphatase [3] (enhancer NONE, 20 min).

Regarding `COC1(c2cccc(OP(=O)(O)O)c2)OOC12C1CC3CC2CC(OC(C)C)(C3)C1` (single isomer, unassigned) [i-PrO-AMPPD-A], on alkaline phosphatase [1], the “HALF-TIME TO PLATEAU” value was 0.93 min.

As for `COC1(c2cccc(OP(=O)(O)O)c2)OOC12C1CC3CC2CC(I)(C3)C1` (single isomer, unassigned) [ISPD-B], the “HALF-TIME TO PLATEAU” value at alkaline phosphatase [1] is 0.70 min.

Take `COC1(c2cccc(OP(=O)(O)O)c2)OOC12C1CC3CC2CC(Br)(C3)C1` (centres unmarked) [Br-AMPPD, disodium 3-(4-methoxyspiro-[1,2-dioxetane-3,2'-(5'-bromo)tricyclo[3.3.1.1^3,7]decan]-4-yl) phenyl phosphate]: the “Detection limit for alkaline phosphatase” value stood at 2.6 femtomoles/liter on alkaline phosphatase [2] (ENHANCER 1, 5 MIN); 0.5 femtomoles/liter on alkaline phosphatase [2] (ENHANCER 1, 20 MIN); 0.4 femtomoles/liter on alkaline phosphatase [2] (ENHANCER 2, 5 MIN); 0.3 femtomoles/liter on alkaline phosphatase [2] (ENHANCER 2, 20 MIN). Moreover, the “Alkaline phosphatase detection limit (at 2× background)” value on alkaline phosphatase [4] (SAPPHIRE II) is 0.00074 pM; on alkaline phosphatase [4] (SAPPHIRE), 0.00021 pM; at alkaline phosphatase [7] (SAPPHIRE II, 5 MINUTE INCUBATION), 0.0004 pM; on alkaline phosphatase [7] (SAPPHIRE II, 20 MINUTE INCUBATION), 0.00039 pM; at alkaline phosphatase [7] (SAPPHIRE, 5 MINUTE INCUBATION), 0.0027 pM; on alkaline phosphatase [7] (SAPPHIRE, 20 MINUTE INCUBATION), 0.0004 pM. The “Total Decay Time” value in test [5] was determined as 40 min. For the same compound, in test [5] (RLU's per minute), the “Decay Rate I” value is reported as 1.2 RLU's per minute. Moreover, the “Decay Rate II” value in test [5] (RLU's per minute) was 0.8 RLU's per minute. In addition, the “Detection limit (in picograms DNA) 5. min. exp.” value in test [6] (BDMQ blocking step) is 0.313 picograms DNA; in test [6] (no BDMQ blocking step), 1.250 picograms DNA. In addition, the “Detection limit (in picograms DNA) 1 min. exp.” value in test [6] (BDMQ blocking step) is 0.313 picograms DNA; in test [6] (no BDMQ blocking step), 2.500 picograms DNA. Besides, the chemiluminescent signal-to-noise level on alkaline phosphatase [3] (EMERALD 1 1 mg/ml, 5 min) is reported as 149; at alkaline phosphatase [3] (EMERALD 1 1 mg/ml, 20 min), 915; at alkaline phosphatase [3] (EMERALD 2 1 mg/ml, 5 min), 315; at alkaline phosphatase [3] (EMERALD 2 1 mg/ml, 20 min), 503; at alkaline phosphatase [3] (SAPPHIRE 1 1 mg/ml, 5 min), 383; on alkaline phosphatase [3] (SAPPHIRE 1 1 mg/ml, 20 min), 566. For the same compound, the chemiluminescent signal-to-noise level stood at 688 on alkaline phosphatase [3] (SAPPHIRE 2 1 mg/ml, 5 min); 1019 on alkaline phosphatase [3] (SAPPHIRE 2 1 mg/ml, 20 min); 77 on alkaline phosphatase [3] (setting [8]); 92 at alkaline phosphatase [3] (enhancer NONE, 20 min).

On to `COC1(c2cccc(OP(=O)(O)O)c2)OOC12C1CC3CC2CC(F)(C3)C1` (centres unmarked) [FSPD], for which the “HALF-TIME TO PLATEAU” value at alkaline phosphatase [1] was 0.74 min.

Take `CCCCOC12CC3CC(C1)C1(OOC1(OC)c1cccc(OP(=O)(O)O)c1)C(C3)C2` (centres unmarked) [n-BuO-AMPPD]: the “HALF-TIME TO PLATEAU” value at alkaline phosphatase [1] is 0.71 min.
